These results are taken from patent US11833137B2, “Substituted chromenones, IRE1 inhibitors, and methods of using same” (The Wistar Institute, priority 2018, dated 2023).

The test system of one data set is 5TGM1 cells. The data set can be described thus: Cell proliferation XTT assay, 5TGM1. The format is cell-based, mouse. As to conditions: 20 μM for a course of 3 days. The method, then:
5TGM1 cells were suspended in phenol red-free RPMI media, seeded in 96-well cell culture plates, and treated with indicated IRE1 inhibitors (20 μM, unless indicated otherwise). At indicated time points, cells were spun down and cell proliferation was assessed by XTT assays (Roche) according to the manufacturer's instructions. Briefly, 50 μl XTT labeling reagent, 1 μl electron-coupling reagent, and 100 μl phenol red-free RPMI media were combined and applied to each well of the 96-well plates. Cells were incubated for 4 h in a CO2 incubator to allow for the yellow tetrazolium salt XTT to be cleaved by mitochondrial dehydrogenases of metabolically active cells to form the orange formazan dye, which can be quantified at 492 nm using a BioTek SYNERGY™ NEO2 Multimode Reader.
In general terms: Formazan colour is commonly taken as a measure of viable cells.

Data set [1] can be described thus: Fluorescence stability (decomposition) in aqueous solution. The format is physicochemical. The note with it: PBS with 1% DMSO, 37° C., 48 h, from 100%. The method, then:
(FIG. 2B) 5TGM1 cells were treated with DMSO or with 20 μM 2, 4, 3, or 7 dissolved in DMSO for 3 days and subjected to XTT assays. Percentages of growth were determined by comparing treated groups with control groups (DMSO). Each data point derived from four independent groups receiving exactly the same treatment was plotted as mean±SD. Results are representative of three independent experiments. […] The values of I/I0 were plotted as a function of time and shown in the inset. I0 was the initial fluorescence intensity of 4 at 0 h. […] The values of I/I0 were plotted as a function of time and shown in the inset. I0 was the initial fluorescence intensity of 5 at 0 h. […] (FIG. 2G) The decomposition rates of 7 and 8 were plotted as a function of time in RPMI media incubated at 37° C. Aliquots were analyzed by HPLC and the peaks integrated.
FIGS. 5A-5J illustrate the finding that installation of a boronate cage cleavable by H2O2 stabilizes the 1,3-dioxane acetal protective group of D-F07 to allow for temporal inhibition of XBP-1s upon contact with H2O2. (FIG. 5A) A scheme showing that installation of a boronate-caged group stabilizes the 1,3-dioxane acetal protective group to allow for H2O2-mediated release of intact D-F07. (FIG. 5B) The fluorescence of BC-D-F07a (2.5 μM in the DMSO/PBS solution (v/v=1:99), Ex=360 nm) increases upon incubation with 0 to 200 μM hydrogen peroxide at room temperature for 1 h. (FIG. 5C) The fluorescence of BC-D-F07b (2.5 μM in the DMSO/PBS solution (v/v=1:99), Ex=360 nm) increases upon incubation with 0 to 2 mM hydrogen peroxide at 37° C. for 1 h. […] I0 was the initial fluorescence intensity of D-F07, BC-D-F07a or BC-D-F07b at 0 h. (FIG. 5E) The levels of hydrogen peroxide produced by 5TGM1, 72-h LPS-stimulated primary CLL, MEC2, and WaC3 cells were measured by Amplex Red with or without the addition of extracellular catalase (500 U/mL). (FIG. 5F) 5TGM1 cells were treated with BC-D-F07a at increasing concentrations for 24 h, lysed, and analyzed for the expression of indicated proteins by immunoblots. (FIG. 5G) CD5+ CLL cells purified from spleens of Eμ-TCL1 mice were stimulated with […], subsequently treated with BC-D-F07a at 20 μM for 16 h, and then incubated with hydrogen peroxide at indicated concentrations for another 4 h. Cells were lysed and analyzed for the expression of indicated proteins by immunoblots. […] Cells were lysed and analyzed for the expression of indicated proteins by immunoblots. […] Percentages of growth were determined by comparing treated groups with control groups (DMSO). […]
UV-vis and fluorescence spectra were carried out on a BioTek SYNERGY™ NEO2 instrument (96 well plate).

Data set [2] has as its system XBP-1s expression, CD5+ CLL cells from Eμ-TCL1 mice. As to conditions: cited from earlier work.

Regarding `O=c1oc2c(C3OCCCO3)c(O)ccc2c2c1CNCC2` [Compound 4, 7-(1,3-dioxan-2-yl)-8-hydroxy-1,2,3,4-tetrahydro-5H-chromeno[3,4-c]pyridin-5-one], in the data set with 5TGM1 cells, the “growth inhibition / cytotoxicity (XTT)” value is on record as “more potent than their respective aldehyde counterparts”. The “fluorescence intensity remaining (decomposition)” value in data set [1] is 5.1%. In addition, in data set [2], the “expression of XBP-1s in CLL cells” value was “can inhibit the expression of XBP-1s in CLL cells”.
